# From publication PMC3978604 (Arthritis Research & Therapy, 2013)
# Read-outs that look alike come from different tables or passages of the source.
# Assays:
# [1] = target: SYK (Homo sapiens, UniProt P43405); test: Whole blood assays of SYK inhibition; type: cell-based
# [2] = tested on: panel of 392 wild-type (non-mutant) protein kinases; test: KINOMEscan ATP binding site competition assay, kinase panel selectivity; conditions: including JAK and vascular endothelial growth factor receptor; data not shown
# [3] = tested on: human monocytes; test: cells; conditions: Monocyte
# Procedure: Peripheral blood mononuclear cells (PBMCs) were isolated by centrifugation from heparinized blood in a Vacutainer CPT Cell Preparation Tube (BD Biosciences). PBMCs were cultured for 1 to 2 hours to allow monocytes to adhere, and nonadherent cells were washed away. The monocytes were stimulated with human IgG-coated (Jackson Immunology, West Grove, PA, USA) copolymer microsphere beads (Thermo Scientific, Fremont, CA, USA) or lipopolysaccharide (1 ng/ml; Sigma-Aldrich) for 4 hours. TNFα levels in supernatants were determined by enzyme-linked immunosorbent assay kits (BD Biosciences).
# [4] = target: JAK3 (Homo sapiens, UniProt P52333); test: KINOMEscan ATP binding site competition assay; conditions: 1 μM compound; truncated recombinant JAK3
# JAK3, sequence (P52333 811-1124 limits assumed): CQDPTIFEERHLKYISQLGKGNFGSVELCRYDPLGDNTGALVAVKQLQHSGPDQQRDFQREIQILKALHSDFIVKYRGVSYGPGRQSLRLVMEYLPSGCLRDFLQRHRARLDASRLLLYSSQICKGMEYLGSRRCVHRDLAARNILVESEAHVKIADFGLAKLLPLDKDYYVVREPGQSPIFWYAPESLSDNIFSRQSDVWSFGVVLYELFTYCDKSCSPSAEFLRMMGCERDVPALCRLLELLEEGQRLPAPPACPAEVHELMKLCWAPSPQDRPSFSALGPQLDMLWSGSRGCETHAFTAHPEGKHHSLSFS
# [5] = tested on: DBA1/J mice with collagen-induced arthritis; test: Murine collagen-induced arthritis model (mCIA); type: in vivo, mouse
# Procedure: The mCIA model has been reported previously. Briefly, DBA1/J male mice were injected intradermally with 0.1 ml bovine type II collagen (100 μg; Chondrex Inc., Redmond, WA, USA) and complete Freund’s adjuvant (200 μg; Difco, Detroit, MI, USA) followed by second immunization on day 21 with bovine type II collagen and incomplete Freund adjuvant. […] Clinical arthritis scores (1 to 4) of individual paws were assessed and the arthritic index for each mouse was determined by adding the individual scores of all four paws. The level of cytokines in serum was determined by Luminex analysis (Millipore, Billerica, MA, USA). Hind paws from CIA mice were collected into 10% neutral buffered formalin. After decalcification in 10% formic acid, paws were embedded in paraffin, sectioned at 8 μm and stained with toluidine blue. Inflammation (infiltration of inflammatory cells), pannus, cartilage damage, and bone resorption were scored in a double-blinded fashion by a board-certified pathologist at Boulder BioPATH, Inc. (Boulder, CO, USA) using standard criteria, with 0 being normal and 5 being the most severe.
# [6] = tested on: Jurkat T-cell line; test: Anti-CD3-induced calcium flux (FLIPR); type: cell-based; conditions: Homo sapiens, read-out: IC50, T-cell receptor (anti-CD3)-induced calcium flux
# [7] = tested on: mouse bone marrow macrophages; test: RANK-L/M-CSF mediated osteoclastogenesis, TRAP+ multinuclear cells; type: cell-based; conditions: in the presence of more than 0.4 μM
# Procedure: Bone marrow cells were obtained from C57BL/6 mouse tibiae and suspended in culture medium supplemented with monocyte colony-stimulating factor (100 ng/ml) for 16 hours. […] The cells were stained using a tartrate-resistant acid phosphate (TRAP) staining kit (Sigma, St Louis, MO, USA). TRAP^+ multinuclear cells were counted for each well under a microscope.
# [8] = Pharmacokinetics after single oral dosing in mouse; type: in vivo; conditions: plasma
# [9] = tested on: Ramos cells; test: Western blot of anti-IgM induced phosphorylation of BTK, PLCγ2, AKT and ERK; conditions: 1 μM pretreatment
# From the text: The protein phosphorylation was detected with rabbit antibodies of anti-phospho-BTK(Y223) (Epitomics Inc., Burlingame, CA, USA), anti-phospho-PLCγ2(Y1217), anti-phospho-ERK(T202/Y204) or anti-phospho-AKT(S473).
# [10] = tested on: human PBMCs, CD14+ monocytes; test: IFNγ-induced STAT1 phosphorylation in CD14+ monocytes (flow cytometry); type: cell-based; conditions: IFNγ-treated CD14+ monocytes; except at the highest concentration tested (10 μM)
# Procedure: (§2) Human PBMCs were pre-incubated with compound for 30 minutes followed by 20 minutes stimulation with IL-2 (100 ng/ml) for signal transducers and activators of transcription 5 (STAT5) phosphorylation or IFNγ (100 ng/ml) for STAT1 phosphorylation.
# [11] = tested on: human whole blood; test: cells; conditions: B-cell, read-out: IC50, BCR-dependent cell surface CD69 expression in CD20+ B cells
# Procedure: (§1) The samples were stained with PE mouse anti-human CD20 and APC mouse anti-human CD69. The percentage of activated (CD69^hi) B cells was determined using unstimulated (negative control) and stimulated (positive control) samples as references.
# [12] = tested on: human PBMCs; test: cells; conditions: PBMC, read-out: IC50, BCR-dependent cell surface CD69 expression in CD20+ B cells
# Procedure: as §1
# [13] = tested on: Ramos B-cell line; test: cells; conditions: Homo sapiens, read-out: IC50, anti-IgM-activated calcium flux
# Procedure: Baseline fluorescence was recorded for about 20 seconds followed by stimulation with mouse anti-human IgM (10 μg/ml, clone M2E6; Antibody Solutions Inc., Mountain View, CA, USA) for Ramos cells or mouse anti-human CD3 (10 μg/ml; BD Biosciences) for Jurkat cells, and the maximal fluorescent counts in each well were recorded.
# [14] = tested on: mouse whole blood B220+ B cells; test: Ex vivo anti-IgD-induced CD69 expression on B220+ B cells in whole blood of dosed CIA mice; conditions: 2 and 5 hours post dose
# [15] = tested on: JAK1; test: KINOMEscan ATP binding site competition assay; conditions: 1 μM compound; truncated recombinant JAK1
# [16] = tested on: human plasmacytoid dendritic cells; test: TLR9-mediated pDC activation (ODN2216, 2 days); type: cell-based; conditions: human pDCs, concentration-dependent
# Procedure: Human plasmacytoid dendritic cells (pDCs) were isolated by negative selection from PBMCs with the human pDC Isolation Kit (Miltenyi Biotec, Auburn, CA, USA). The purity was confirmed with CD303 (BDCA-2; Miltenyi Biotec) staining and stimulated with ODN2216 (1 μM) for 2 days. The production of IFNα and TNFα was measured by AlphaLISA.
# [17] = tested on: human B cells; test: TLR9-mediated plasmablast differentiation (ODN2006 + IL-2, 6 days); type: cell-based
# Procedure: Human B cells were differentiated with ODN2006 (50 nM) and IL-2 (10 ng/ml) for 6 days. The differentiated cells were stained with V450 anti-CD38, FITC anti-CD20, PE anti-CD19 and APC intracellular IgM. The plasmablasts were identified as CD19^+CD38^+CD20^–IgM^+ cells. The production of IgG and IgM was quantitated by AlphaLISA.
# [18] = tested on: human mast cells; test: cells; conditions: Mast cell, read-out: IC50, IgE/antigen-induced histamine release
# Procedure: The method has been reported previously by our group. […] For measuring histamine release, cells were sensitized with 0.1 μg/ml anti-4-hydroxy-3-nitrophenylacetyl hapten IgE (Serotec, Raleigh, NC, USA) overnight, and then cross-linked with 1 μg/ml NP(30)-BSA (Biosearch Technologies, Novato, CA, USA) for 30 minutes. Supernatants were collected and assayed for histamine release using a histamine enzyme immunoassay (Oxford Biomedical Research, Rochester Hills, MI, USA). The percentage of histamine release was calculated by comparing various treatments with positive control.
# [19] = tested on: human PBMCs, CD3+ T cells; test: IL-2-induced STAT5 phosphorylation in CD3+ T cells (flow cytometry); type: cell-based; conditions: for effect on phosphorylation of STAT5: at 1 μM, IL-2 stimulated CD3+ T cells
# Procedure: as §2
smiles,measurement,setting,value
COc1cc(Nc2ncc(F)c(Nc3ccc4c(n3)N(COP(=O)(O)O)C(=O)C(C)(C)O4)n2)cc(OC)c1OC [R788],SYK inhibition in whole blood assays,[1],relatively weak
same,kinase selectivity in the KinaseScan assay,[2],inhibiting one-half of the kinome
"Cc1ccc(Nc2cc(N[C@@H]3CCCC[C@@H]3N)nnc2C(N)=O)nc1C [RO9021, 6-[(1R,2S)-2-amino-cyclohexylamino]-4-(5,6-dimethyl-pyridin-2-ylamino)-pyridazine-3-carboxylic acid amide]",IC50,"[3]; 4 h, read-out: IC50, TNFα production induced by crosslinking of FcγR",63 ± 19 nM
same,IC50,"[3]; read-out: IC50, TLR4-dependent TNFα production",2900 ± 900 nM
same,competition with compound (JAK3),[4],more than 90%
same,"histopathology of hind paws (inflammation, pannus, cartilage damage, bone resorption)",[5]; 5 and 45 mg/kg orally daily for 14 days,"vehicle-treated, but not RO9021-treated, mice had severe inflammation and cartilage damage"
same,"arthritis progression, clinical scores","[5]; 5 and 45 mg/kg orally daily for 14 days from day 21, significant in both groups vs vehicle",inhibited arthritis progression in a dose-dependent manner
same,serum level of IL-6,[5]; after 14 days of treatment,markedly reduced
same,serum level of KC(CXCL1),[5]; after 14 days of treatment,markedly reduced
same,IC50,[6],910 ± 270 nM
same,TRAP+ cells,[7],barely detectable
same,AUC,[8]; single oral dose 5 mg/kg,3.85 µM·h
same,Cmax,[8]; single oral dose 5 mg/kg,0.695 µM
same,Tmax,[8]; single oral dose 5 mg/kg,1 h
same,half-life,[8]; single oral dose 5 mg/kg,4.34 h
same,AUC,[8]; single oral dose 45 mg/kg,35.8 µM·h
same,Cmax,[8]; single oral dose 45 mg/kg,5.76 µM
same,Tmax,[8]; single oral dose 45 mg/kg,0.5 h
same,half-life,[8]; single oral dose 45 mg/kg,3.54 h
same,"anti-IgM induced phosphorylation of BTK, PLCγ2, AKT and ERK",[9],inhibited
same,effect on phosphorylation of STAT1,[10],no effect
same,IC50,[11],87 nM
same,IC50,[12],83 nM
same,IC50,[13],78 ± 21 nM
same,"anti-IgD-induced CD69 expression on B cells (B220+), ex vivo",[14],inhibited
same,competition with compound (JAK1),[15],more than 90%
same,production of IFNα,[16],inhibited
same,production of TNFα,[16],inhibited
same,production of IL-6 in the supernatant,[17],reduced
same,production of IgG in the supernatant,[17],reduced
same,production of IgM in the supernatant,[17],reduced
same,IC50,[18],22.8 ± 1.7 nM
same,IC50,"[19]; Homo sapiens, T-cell, read-out: IC50, IL-2-induced STAT5 phosphorylation",1320 ± 660 nM
same,effect on phosphorylation of STAT5,[19],no significant effect
"C[C@@H]1CCN(C(=O)CC#N)C[C@@H]1N(C)c1ncnc2[nH]ccc12 [tofacitinib, reference compound]",effect on phosphorylation of STAT5,[19],completely blocked
